{"source": "patent US20160333063A1", "about": "“SOLUBLE HIGH MOLECULAR WEIGHT (HMW) TAU SPECIES AND APPLICATIONS THEREOF” (THE GENERAL HOSPITAL CORPORATION, priority 2013, published 2016)", "type_in_all_cases": "cell-based, mouse", "key": {"caspase 3": {"test_system": "caspase 3", "assay": "Western blot of cleaved caspase 3 in treated primary cortical neurons", "description": "(§1) Treatment of neuronal cultures. Wild-type (from CD1 mice), Tau−/−, Tau+/−, and Tau+/+ cortical neurons were cultured in standard NB/B27 serum-free medium, and, at 14 DIV, the medium was replaced with diluted 1:3 CM from TgCM, corresponding to 4 nM of Aβ, or WtCM (0.16 nM of murine Aβ40) and further incubated for 24 hrs. To induce apoptosis, cultures were treated with staurosporine (Enzo Life Sciences) at a final concentration of 1 μM and were harvested 4 hours after treatment. In zVAD-FMK (Sigma Aldrich) experiments, 20 μM of the inhibitor was applied to cultures 20 minutes prior to exposure to WtCM, TgCM, or STS. To inhibit calcineurin, 1 μM FK506 (Enzo Life Sciences) was applied 20 minutes prior to exposure to WtCM, TgCM or STS. Media was then aspirated and RIPA buffer with phosphatase and protease inhibitors was added to each well. Cells were scraped to prepare lysates for Western blots.\nWestern Blot. Protein lysates were boiled in sample buffer consisting of LDS Sample Buffer and reducing Agent, resolved on 4%-12% Bis-Tris polyacrylamide precast gels in a MES-SDS running buffer containing antioxidant. For most analyses, 20 μg/lane were loaded. Gels were transferred onto nitrocellulose membranes (Whatman) in transfer buffer containing 20% methanol. Blots were blocked in Odyssey blocking buffer (Li-Cor biosciences), followed by incubation with primary antibodies: mouse β-actin (Sigma; 1:10,000); rabbit cleaved caspase 3 (Cell Signaling; 1:1,000); rabbit caspase 3 (Cell Signaling; 1:1,000); mouse TauC3 (courtesy of Dr Lester Binder, 1:300); rabbit polyclonal Total Tau (Dako; 1:10,000), rabbit PSD95 (1:1,000; Cell Signaling), rabbit cleaved caspase 9 (1:1,000; Cell Signaling), mouse caspase 9 (1:1,000; Cell Signaling), rabbit pBAD (1:1,000; Cell Signaling), rabbit BAD (1:1,000; Cell Signaling), VDAC (1:1,000; Cell Signaling), mouse cytochrome c (1:1,000; BD Pharmingen), mouse BAX (1:1,000; Santa Cruz), rabbit cleaved PARP (1:1,000; Cell Signaling), rabbit PARP (1:1,000; Cell Signaling). […]"}, "[1]": {"test_system": "poly (ADP-ribose) polymerase (PARP)", "assay": "Western blot of cleaved PARP", "settings": "TgCM 24 hrs; STS 6 hours", "description": "as §1, with “To induce apoptosis, cultures were treated with staurosporine (Enzo Life Sciences) at a final concentration of 1 μM and were harvested 4 hours after treatment.” left out\n(§2) Western Blot. Protein lysates were boiled in sample buffer consisting of LDS Sample Buffer and reducing Agent, resolved on 4%-12% Bis-Tris polyacrylamide precast gels in a MES-SDS running buffer containing antioxidant. For most analyses, 20 μg/lane were loaded. Gels were transferred onto nitrocellulose membranes (Whatman) in transfer buffer containing 20% methanol. […]"}, "[2]": {"test_system": "primary neuronal cultures", "assay": "ToxiLight BioAssay for cell death", "description": "ToxiLight BioAssay. Toxicity assays were conducted in medium collected from wild-type, Tau+/− and Tau−/− neurons plated in 96 well plates at 15 DIV using the ToxiLight BioAssay kit (Lonza, Rockland, Me.). Preparation of cell extracts and the cytotoxicity assay were performed according to manufacturer protocols. After centrifugation, 50 μl samples per well were transferred on an opaque white microtitre plate. To each well, 100 μl of the adenylate kinase detection reagent was added and the plate was incubated for 5 min at room temperature. After 5 min, luminescence was measured in the Wallac plate reader. Results are expressed as arbitrary relative light units (AU). To achieve 100% cell lysis (positive control) neurons were treated with 10% triton-X-100. […] Neurons for Toxilight assays were plated in 96 well plates using 3 wells per condition in duplicate across four separate culture experiments."}, "[3]": {"test_system": "tau cleaved at Asp421 (TauC3)", "assay": "Western blot of tau cleaved at Asp421 in treated primary cortical neurons", "description": "as §1, §2"}, "caspase 9": {"test_system": "caspase 9", "assay": "Western blot of cleaved caspase 9 in treated primary cortical neurons", "settings": "TgCM treated cultures, inhibitor or Aβ immunodepletion", "description": "as §1, §2"}, "BAD": {"test_system": "BAD", "assay": "Western blot of phosphorylated BAD in treated primary cortical neurons", "settings": "TgCM treated cultures, inhibitor or Aβ immunodepletion", "description": "as §1, §2"}, "cytochrome c": {"test_system": "cytochrome c", "assay": "Western blot of cytochrome c in cytosolic fraction and mitochondrial pellet", "settings": "TgCM treated cultures plus inhibitor", "description": "as §1\nMitochondria Isolations. Mitochondria were isolated from neurons plated in 10 cm dishes treated with WtCM and TgCM and purified by centrifugation as previously described (Ofengeim et al., 2012). […] The protein concentration was determined by BCA assay (Thermo Scientific) in all fractions and this concentration used for loading gels for western blot analysis. […]"}, "GFP transfected neurons": {"test_system": "GFP transfected neurons", "assay": "Spine density of GFP transfected neurons", "description": "Analysis of spine density and spine morphology. Cultured neurons plated in 35 mm glass-bottomed dishes (MatTek) were transfected with green fluorescent protein (GFP) (Clontech) at 7 DIV and imaged at 15 DIV. High-resolution digital images were taken using a Zeiss LSM510 confocal microscope with a 25× water-immersion objective lens (digital zoom=3-5), and excitation laser at 488 nm. Images were analyzed with NeuronStudio software (CNIC, Mount Sinai School of Medicine). Spine density was defined as the number of spines per micrometer of dendrite length according previously published protocols (Wu et al., 2010) with modifications. Dendritic spine densities were calculated from 30 to 40 neurons per condition across four separate culture experiments. For each condition, measurements of spine densities were averaged per neuron; the means from multiple neurons were then averaged to obtain the mean±s.e.m. for the population of neurons."}, "PSD95": {"test_system": "PSD95", "assay": "Western blot of PSD95", "settings": "co-treated with inhibitor", "description": "as §1, §2"}, "[4]": {"settings": "STS 1 μM plus caspase inhibition"}, "[5]": {"settings": "TgCM (4 nM Aβ) 24 hrs, inhibitor applied 20 minutes prior"}}, "note": "Where a SMILES comes first, the peptide text is derived from it. The star is where a group is joined. Cbz = O=C(OCc1ccccc1)*; CH2F = FC*"}
{"smiles": "C=CC[C@@H]1/C=C(\\C)C[C@H](C)C[C@H](OC)[C@H]2O[C@@](O)(C(=O)C(=O)N3CCCC[C@H]3C(=O)O[C@H](/C(C)=C/[C@@H]3CC[C@@H](O)[C@H](OC)C3)[C@H](C)[C@@H](O)CC1=O)[C@H](C)C[C@@H]2OC", "note": "[FK506]", "values": [{"measurement": "caspase 3 activation, tau cleavage, caspase 9 activation and BAD dephosphorylation in WtCM treated cultures", "setting": "caspase 3; WtCM plus inhibitor", "result": "no effect"}]}
{"smiles": "CN[C@@H]1C[C@H]2O[C@@](C)([C@@H]1OC)n1c3ccccc3c3c4c(c5c6ccccc6n2c5c31)C(=O)NC4", "note": "[STS, staurosporine]", "values": [{"measurement": "cleaved PARP", "setting": "[1]", "result": "induced PARP cleavage"}, {"measurement": "cell death (release of adenylate kinase)", "setting": "[2]; compared to control", "result": "cell death was induced"}]}
{"smiles": "COC(=O)C[C@H](NC(=O)[C@H](C)NC(=O)[C@@H](NC(=O)OCc1ccccc1)C(C)C)C(=O)CF", "note": "[zVAD-FMK] (Cbz-Val-Ala-Asp(OMe)-CH2F)", "values": [{"measurement": "caspase 3 activation in STS treated cells", "setting": "caspase 3; [4]", "result": "reduced activation of caspase 3"}, {"measurement": "caspase 3 activation in TgCM exposed neurons", "setting": "caspase 3; [5]", "result": "no increase"}, {"measurement": "tau cleavage in STS treated cells", "setting": "[3]; [4]", "result": "reduced tau cleavage"}, {"measurement": "TauC3 levels / tau cleavage in TgCM exposed neurons", "setting": "[3]; [5]", "result": "no increase"}, {"measurement": "Aβ-induced caspase 9 activation", "setting": "caspase 9", "result": "blocked"}, {"measurement": "TgCM-induced dephosphorylation of BAD", "setting": "BAD", "result": "did not prevent dephosphorylation of BAD"}, {"measurement": "levels of cytochrome c in the cytosol or mitochondrial pellet", "setting": "cytochrome c", "result": "did not alter levels of cytochrome c"}, {"measurement": "STS-induced cell death", "setting": "[2]; STS plus inhibitor", "result": "blocked"}, {"measurement": "spine loss triggered by TgCM", "setting": "GFP transfected neurons; TgCM treated neurons plus inhibitor", "result": "fully blocked the spine loss"}, {"measurement": "spine density in WtCM exposed neurons", "setting": "GFP transfected neurons; WtCM plus inhibitor", "result": "significant increase in spine density"}, {"measurement": "PSD95 levels in neurons exposed to TgCM", "setting": "PSD95", "result": "preserved"}]}
